Where a name gives a salt, the structure may show the parent alone. Read-outs that look alike come from different tables or passages of the source. Values belong to the molecule of their own block, whether it stands above or below them.
Tests used:
[1] = Solubility and pH of salts
[2] = tested on: guinea pig bronchioles constricted by carbachol; test: Bronchodilator Test Method II, in vitro perfused guinea pig lung
Protocol: In this method bronchodilator activity in vitro was determined by testing the effect of graded doses of the test compounds on guinea pig bronchioles constricted by carbachol, using the technique reported by Sollman and von Oettingen, Proc. Soc, Exp. Biol. Med., 25,692 (1928) as modified by Tainter, Pedden, and James, J. Pharm. Exp. Ther., 51, 371 (1934) and by Luduena, von Euler, Tullar, and Lands, Arch. intern. Pharmacol., III, 392 (1957).

[3] = tested on: carbachol- or histamine-induced bronchoconstriction; test: Bronchodilator Test Method I, anesthetized dog, intraduodenal activity; type: in vivo; details: Canis lupus familiaris, read-out: Bronchodilation; for inhibition in vivo at 0.005 mg/kg: 5 mcg/kg (salt) intraduodenal; for inhibition in vivo at 0.04 mg/kg: 40 mcg/kg (salt) intraduodenal; for inhibition in vivo at 0.16 mg/kg: 160 mcg/kg (salt) intraduodenal
Procedure, shortened: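 Pentobarbital-anesthetized (30 mg/kg i.v.) open-chest dogs of 9-18 kg, artificially ventilated; airway pressure recorded via tracheal cannula transducer. Test solution injected intraduodenally; from 5 min, i.v. carbachol (4-6 μg/kg) or histamine diphosphate (35-45 μg/kg) challenges every 30-60 min gauged degree and duration of bronchodilation.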

[4] = tested on: heart rate; test: Cardiovascular studies: effect on the heart rate in the anesthetized dog; type: in vivo
Protocol: The effect of a rapid intravenous injection on the heart rate the heart rate was conducted in anesthetized dogs under normal respiration. A few open-chest dogs were also tested. Increase in heart rate was measured by using an electrocardiograph attached to the dog. Readings were taken every 0.5-1 minute for the first 10 minutes and every 2-5 minutes thereafter until recovery. In some cases, several doses and more than one compound were tested alternately in the same dog. The blood pressure effect was simultaneously recorded.

[5] = tested on: carbachol- or histamine-induced bronchoconstriction; test: Bronchodilator Test Method I, anesthetized dog, intravenous activity; type: in vivo; details: Canis lupus familiaris, read-out: Bronchodilatation; for inhibition in vivo at 0.0005 mg/kg: 0.5 mcg/kg i.v.; for inhibition in vivo at 0.006 mg/kg: 6.0 mcg/kg i.v.
Procedure, shortened: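 Pentobarbital-anesthetized (30 mg/kg i.v.), open-chest, artificially ventilated dogs were given i.v. carbachol (4-6 µg/kg) or histamine diphosphate (35-45 µg/kg). Test compound was given i.v. mixed with, after, or 1-10 min before the constrictor.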

[6] = 1 percent solution in dimethyl sulfoxide
[7] = 1 percent solution in glycerol formal

solubility ([1]; water): < 1000 µg/mL
SMILES: Cc1ccc(C(=O)Oc2ccc(C(=O)CNC(C)(C)C)cc2OC(=O)c2ccc(C)cc2)cc1 [3,4-bis(p-toluyloxy)phenyl tert-butylaminomethyl ketone hydrochloride]

SMILES: CC(C)(C)NCC(=O)c1ccc(OC(=O)C(C)(C)C)c(OC(=O)C(C)(C)C)c1.Cl [3,4-bis(pivalyloxy)phenyl tert-butylaminomethyl ketone hydrochloride]
solubility ([1]; water): ≥ 10000 µg/mL

pH of a 1 percent aqueous solution ([1]; 1 percent aqueous solution of the salt): 6.0
precipitation on raising pH to 7.0 ([1]; 1 percent aqueous solution, N/10 sodium hydroxide to pH 7.0): a precipitate formed
solubility ([1]; water): ≥ 200000 µg/mL
SMILES: CCCC(=O)Oc1ccc(C(O)CNC(C)(C)C)cc1OC(=O)CCC.Cl (stereo not drawn) [Example 1, 3,4-bis(butyryloxy)-alpha-(tert-butylaminomethyl)benzyl alcohol hydrochloride]
ED50 ([2]; carbachol (Doryl) 1:5 million): 0.23 µg (base)
Duration, Mean ([2]; dose 0.5 mcg (base)): 9 ± 1.0 min

solubility ([1]; water): ≥ 50000 µg/mL
SMILES: CCC(C)CC(=O)Oc1ccc(C(O)CNC(C)(C)C)cc1OC(=O)CC(C)CC.Cl (stereo not drawn) [Example 6, 3,4-bis(3-methylpentanoyloxy)-alpha-(tert-butylaminomethyl)benzyl alcohol hydrochloride]
ED50 ([2]; carbachol (Doryl) 1:5 million): 1.3 µg (base)
Duration, Mean ([2]; dose 3.2 mcg (base)): 43 ± 3.7 min

solubility ([1]; water): ≥ 50000 µg/mL
SMILES: CCCC(C)(C)C(=O)Oc1ccc(C(O)CNC(C)(C)C)cc1OC(=O)C(C)(C)CCC (stereo not drawn) [Example 8, 3,4-bis(2,2-dimethylpentanoyloxy)-alpha-(tert-butylaminomethyl)benzyl alcohol]

precipitation on dilution with three volumes of water [1, 6]: no precipitate formed
precipitation on dilution with three volumes of water [1, 7]: no precipitate formed
solubility ([1]; dimethyl sulfoxide, organic solvent or mixture): ≥ 10000 µg/mL
solubility ([1]; glycerol formal, organic solvent or mixture): ≥ 10000 µg/mL
SMILES: CC(C)(C)NCC(O)c1ccc(OC(=O)c2ccccc2)c(OC(=O)c2ccccc2)c1.Cl (stereo not drawn) [Example 29, 3,4-bis(benzoyloxy)-alpha-(tert-butylaminomethyl)benzyl alcohol hydrochloride]
ED50 ([2]; carbachol (Doryl) 1:5 million): 1.1 µg (base)
Duration, Mean ([2]; dose 3.2 mcg (base)): 34 ± 6.4 min

precipitation on dilution with three volumes of water [1, 6]: no precipitate formed
precipitation on dilution with three volumes of water [1, 7]: no precipitate formed
solubility ([1]; polyethyleneglycol 200, organic solvent or mixture): < 10000 µg/mL
SMILES: COc1ccc(C(=O)Oc2ccc(C(O)CNC(C)(C)C)cc2OC(=O)c2ccc(OC)cc2)cc1.Cl (stereo not drawn) [Example 33, 3,4-bis(p-anisoyloxy)-alpha-(tert-butylaminomethyl)benzyl alcohol hydrochloride]
ED50 ([2]; carbachol (Doryl) 1:5 million): 6.9 µg (base)
Duration, Mean ([2]; dose 10 mcg (base)): 32 ± 5 min

solubility ([1]; water): ≥ 50000 µg/mL
SMILES: Cc1ccc(C(=O)Oc2ccc(C(O)CNC(C)(C)C)cc2O)cc1 (stereo not drawn) [Example 69, 3-hydroxy-4-(p-toluyloxy)-alpha-(tert-butylaminomethyl)benzyl alcohol methanesulfonate]

SMILES: COc1ccc(C(=O)Oc2cc(C(O)CNC(C)(C)C)ccc2OC(C)=O)cc1 (stereo not drawn) [Example 149, 3-(p-anisoyloxy)-4-acetoxy-alpha-(tert-butylaminomethyl)benzyl alcohol methanesulfonate]
ED50 ([2]; Doryl conc. 1:10 million): 0.91 µg (base)
Duration, Mean ([2]; dose 2 mcg (base), Doryl conc. 1:10 million): 13.2 ± 1.9 min
inhibition in vivo at 0.005 mg/kg ([3]; 5 min, 5 min): 0%
inhibition in vivo at 0.04 mg/kg ([3]; 5 min, 5 min): 78%
inhibition in vivo at 0.16 mg/kg ([3]; 5 min, 5 min): 72%
inhibition in vivo at 0.005 mg/kg ([3]; 0.5 h, 30 min): 7%
inhibition in vivo at 0.04 mg/kg ([3]; 0.5 h, 30 min): 52%
inhibition in vivo at 0.16 mg/kg ([3]; 0.5 h, 30 min): 61%
inhibition in vivo at 0.005 mg/kg ([3]; 1 h, 60 min): 13%
inhibition in vivo at 0.04 mg/kg ([3]; 1 h, 60 min): 44%
inhibition in vivo at 0.16 mg/kg ([3]; 1 h, 60 min): 56%
inhibition in vivo at 0.005 mg/kg ([3]; 2 h, 120 min): 5%
inhibition in vivo at 0.04 mg/kg ([3]; 2 h, 120 min): 31%
inhibition in vivo at 0.16 mg/kg ([3]; 2 h, 120 min): 11%
inhibition in vivo at 0.005 mg/kg ([3]; 3 h, 180 min): 9%
inhibition in vivo at 0.16 mg/kg ([3]; 3 h, 180 min): 22%
inhibition in vivo at 0.005 mg/kg ([3]; 4 h, 240 min): 0%
inhibition in vivo at 0.04 mg/kg ([3]; 4 h, 240 min): 35%
inhibition in vivo at 0.16 mg/kg ([3]; 4 h, 240 min): 23%
inhibition in vivo at 0.04 mg/kg ([3]; 5 h, 300 min): 35%
Mean Maximal Increase in the Heart Rate ([4]; 0.8 mcg/kg (salt) i.v.): 19 Beats/Minute
Mean Maximal Increase in the Heart Rate ([4]; 6.4 mcg/kg (salt) i.v.): 47 Beats/Minute
Mean Maximal Increase in the Heart Rate ([4]; 32 mcg/kg (salt) i.v.): 70 Beats/Minute
inhibition in vivo at 0.0005 mg/kg ([5]; 5 min, 5 min): 54%
inhibition in vivo at 0.006 mg/kg ([5]; 5 min, 5 min): 100%
inhibition in vivo at 0.0005 mg/kg ([5]; 0.5 h, 30 min): 19%
inhibition in vivo at 0.006 mg/kg ([5]; 0.5 h, 30 min): 32%
inhibition in vivo at 0.0005 mg/kg ([5]; 1 h, 60 min): 19%
inhibition in vivo at 0.006 mg/kg ([5]; 1 h, 60 min): 24%
